{"source": "patent US6949561B1", "about": "“Steroid 3-O-sulphamate derivatives as inhibitors of oestrone sulphatase” (Sterix Limited, priority 1997, dated 2005)", "key": {"E1-STS enzyme": {"biological_target": "T1, E1-STS enzyme (Homo sapiens, UniProt P08842)", "T1 sequence (P08842 22-583)": "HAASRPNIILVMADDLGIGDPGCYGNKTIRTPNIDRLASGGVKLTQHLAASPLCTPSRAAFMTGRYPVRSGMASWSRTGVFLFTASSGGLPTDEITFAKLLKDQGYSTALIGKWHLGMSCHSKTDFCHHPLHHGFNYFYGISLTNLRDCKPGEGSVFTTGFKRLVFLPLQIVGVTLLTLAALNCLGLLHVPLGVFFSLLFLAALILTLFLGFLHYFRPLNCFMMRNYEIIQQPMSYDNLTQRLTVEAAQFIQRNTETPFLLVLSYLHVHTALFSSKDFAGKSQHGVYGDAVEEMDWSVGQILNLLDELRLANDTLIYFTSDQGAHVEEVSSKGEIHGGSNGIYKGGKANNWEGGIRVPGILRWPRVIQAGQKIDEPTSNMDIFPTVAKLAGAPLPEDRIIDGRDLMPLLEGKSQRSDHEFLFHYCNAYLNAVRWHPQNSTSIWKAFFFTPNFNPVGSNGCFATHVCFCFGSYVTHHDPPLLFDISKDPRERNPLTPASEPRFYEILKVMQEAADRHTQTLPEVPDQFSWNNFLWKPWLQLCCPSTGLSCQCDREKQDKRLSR", "details": "prior art; cited from earlier work"}, "[1]": {"details": "cited from earlier work"}, "[2]": {"biological_target": "T2, Rat Liver Sulphatase (E1-STS) (Rattus norvegicus, UniProt P15589)", "T2 construct": "from tissue; host or cells: rat liver after oral dosing", "T2 sequence (P15589 20-577)": "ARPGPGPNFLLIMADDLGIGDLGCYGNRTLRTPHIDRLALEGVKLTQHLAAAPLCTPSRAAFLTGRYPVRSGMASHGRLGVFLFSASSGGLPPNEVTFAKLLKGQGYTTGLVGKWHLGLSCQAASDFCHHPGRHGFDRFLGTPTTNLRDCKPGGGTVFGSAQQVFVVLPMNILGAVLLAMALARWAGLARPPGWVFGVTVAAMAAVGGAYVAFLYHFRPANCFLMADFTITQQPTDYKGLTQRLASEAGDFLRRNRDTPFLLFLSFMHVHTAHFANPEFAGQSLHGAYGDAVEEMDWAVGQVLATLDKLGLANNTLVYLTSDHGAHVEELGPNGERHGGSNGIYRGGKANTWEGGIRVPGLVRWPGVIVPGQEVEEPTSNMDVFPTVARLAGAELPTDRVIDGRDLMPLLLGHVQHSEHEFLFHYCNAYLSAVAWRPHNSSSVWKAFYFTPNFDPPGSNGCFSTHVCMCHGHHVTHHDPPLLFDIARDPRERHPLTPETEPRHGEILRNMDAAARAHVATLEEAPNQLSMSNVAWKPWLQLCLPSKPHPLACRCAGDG", "assay": "In vivo inhibition (rat liver sulphatase)", "details": "2 mg/Kg/day × 5 days, oral dose"}, "[3]": {"biological_target": "T3, Steroid sulphatase (Steryl Sulphatase EC 3.1.6.2; E1-STS) in intact MCF-7 human breast cancer cells (Homo sapiens, UniProt P08842)", "T3 construct": "endogenous in cells; host or cells: MCF-7 human breast cancer cells", "T3 sequence (P08842 22-583)": "T1 sequence (P08842 22-583)", "details": "0.1 μM; known from prior art; cited from earlier work"}, "[4]": {"biological_target": "T2, Rat Liver Sulphatase (E1-STS)", "details": "administered either orally or subcutaneously; prior art; cited from earlier work"}, "[5]": {"biological_target": "T4, dehydroepiandrosterone sulphatase (DHA-STS) (Rattus norvegicus, UniProt P15589)", "T4 construct": "host or cells: rat liver (in vivo dosing)", "T4 sequence (P15589 20-577)": "T2 sequence (P15589 20-577)", "details": "administered either orally or subcutaneously; prior art; cited from earlier work"}, "memory": {"test_system": "memory", "details": "rats; prior art; cited from earlier work"}}}
{"compound": "oestrone-3-S-sulphamate", "values": [{"measurement": "mode of E1-STS inhibition", "setting": "E1-STS enzyme", "value": "weaker non-time-dependent inactivators"}]}
{"compound": "oestrone-3-N-sulphamate", "values": [{"measurement": "mode of E1-STS inhibition", "setting": "E1-STS enzyme", "value": "weaker non-time-dependent inactivators"}]}
{"compound": "C[C@]12CC[C@@H]3c4ccc(OS(=O)(=O)O)cc4CC[C@H]3[C@@H]1CCC2=O", "note": "[Compound E1S, oestrone sulphate]", "values": [{"measurement": "half-life in blood", "setting": "[1]", "value": "10 to 12", "unit": "h"}]}
{"compound": "CC12CCC3c4ccc(OS(N)(=O)=O)cc4CCC3C1CCC2=O", "note": "(stereo not drawn) [EMATE, oestrone-3-sulphamate]", "values": [{"measurement": "In Vivo Inhibition (Rat Liver Sulphatase)", "setting": "[2]", "value": "99.1±0.2", "unit": "%"}, {"measurement": "inhibition of E1-STS activity in intact MCF-7 cells", "setting": "[3]", "value": "more than 99%"}, {"measurement": "inhibition of rat liver E1-STS activity", "setting": "[4]", "value": 99, "unit": "%"}, {"measurement": "inhibition of rat liver DHA-STS activity", "setting": "[5]", "value": 99, "unit": "%"}, {"measurement": "memory enhancing effect", "setting": "memory", "value": "memory enhancing effect"}, {"measurement": "mode of E1-STS inhibition", "setting": "E1-STS enzyme", "value": "time- and concentration-dependent manner"}]}
